From patent US4579859A, “Vasodilating trinitratoalkyl esters of 2-cyano-1,4-dihydropyridines” (Fujisawa Pharmaceutical Co., Ltd., priority 1983, dated 1986)
Values after ≈ are worked out from the molar mass of the structure shown. Where two headings read alike, the source gives them in different places.

System: isolated coronary artery
Experiment: Effect on isolated coronary artery (relaxation of KF-contracted spiral strips; papaverine 10^-4 M = 100%)
Design: species or system dogs
Conditions: Canis lupus familiaris, read-out: ED50 values
Protocol: The large coronary arteries, 2.0 mm in outside diameter were removed from pentobarbital-anesthetized dogs. Spiral strips approximately 15 mm in length were cut from the large arteries, and suspended in an organ bath containing calcium-free-Tyrode's solution with EGTA 0.2 mM at 37° C., aerated with a gas mixture of 95% oxygen and 5% carbon dioxide. The tonus of the strips was recorded on a polygraph with a force-displacement transducer. After the initial resting tension was adjusted to 1.0 g for the large artery, potassium fluoride 10 mM was added to the organ bath to increase the tonus of the large arterial strips to 1.4-1.6 g.
The cumulative concentrations of the test compound were then added, and finally paraverine 10^-4 M was given to determine maximum relaxation. ED50 values were calculated by interpolation from the mean cumulative dose-activity curves (effect of papaverine 10^-4 M=100%).

EC50 (isolated dog large coronary artery strips, calcium-free Tyrode's solution with EGTA 0.2 mM, 37° C., tonus by potassium fluoride 10 mM, cumulative concentrations, papaverine 10^-4 M = 100%) [µg/mL] | SMILES | EC50 [µg/mL]
– | COC(=O)C1=C(C#N)NC(C)=C(C(=O)OCC(CO[N+](=O)[O-])(CO[N+](=O)[O-])CO[N+](=O)[O-])C1c1cccc([N+](=O)[O-])c1 (stereo not drawn) [Compound B, 3-Nitrooxy-2,2-bis(nitrooxymethyl)propyl ester of 6-cyano-5-methoxycarbonyl-2-methyl-4-(3-nitrophenyl)-1,4-dihydropyridine-3-carboxylic acid] | 0.17 (≈ 0.285 µM)
> 1 | COC(=O)C1=C(C)NC(C)=C(C(=O)OC)C1c1ccccc1[N+](=O)[O-] [Nifedipine, Dimethyl esters of 2,6-dimethyl-4-(2-nitrophenyl)-3,5-dicarboxylic acid, reference compound] | –
– | CCOC(=O)C1=C(C)NC(C)=C(C(=O)OCC(CO[N+](=O)[O-])(CO[N+](=O)[O-])CO[N+](=O)[O-])C1c1cccc(Cl)c1Cl (stereo not drawn) [Compound A, 3-Nitrooxy-2,2-bis(nitrooxymethyl)propyl ester of 4-(2,3-dichlorophenyl)-5-ethoxycarbonyl-2,6-dimethyl-1,4-dihydropyridine-3-carboxylic acid] | 0.97 (≈ 1.56 µM)
